Experimental data: patent US20220354858A1, “METHOD FOR TREATING MALIGNANT TUMOR” (TAIHO PHARMACEUTICAL CO., LTD., priority 2019, published 2022)
Where “and” joins values, the source holds several entries; their conditions need not be identical. Equal entries are not always repeated. Where two headings read alike, the source gives them in different places.

Legend:
[1] = humans; cited from earlier work
[2] = test system: advanced solid cancers; experiment: Optimal dosage regimen study in humans: safety (non-prescribed withdrawal) and efficacy (RECIST) profiles; type: in vivo, human; conditions: for Non-prescribed withdrawal: N = 6
Procedure: With regard to Example 3, the optimal dosage regimen of Compound 1 was studied. The safety profiles and efficacy profiles when the recommend doses were administered in the schedule of administration for 7 consecutive days and the schedule of 4-administration with 3-withdrawal were compared in patients with advanced solid cancers for which standard treatment options were not available.
For the safety profiles, non-prescribed withdrawal periods were compared. The non-prescribed withdrawal period is a comprehensive index of safety profiles.
In this Example, dose modification criteria in the case of the occurrence of a toxicity for which a causal relationship to the drug cannot be denied were shown. Dose modification criteria for non-hematologic toxicities, dose modification criteria for hematologic toxicities, and dose modification criteria for other toxicities were set. When any of these criteria was met, a prescribed day to perform drug administration was changed to a day on which the drug is not administered, i.e., a non-prescribed withdrawal period.
The dose modification criteria for non-hematologic toxicities for which a causal relationship to the drug cannot be denied were set as follows.
With regard to fasting blood glucose, if symptomatic grade 4 hyperglycemia or grade 3 or higher hyperglycemia for more than 7 days develops, the administration is discontinued (non-prescribed withdrawal). If the condition recovers to grade 1 or grade 0, the administration can be resumed. When the administration is resumed, the administration amount is reduced by one level from the original administration amount. However, for adverse events (e.g., fatigue and skin dryness) that are judged to be less likely to become serious or worsen to life-threatening events, the administration of the drug can be continued at the same administration amount without dose reduction or administration discontinuation, regardless of the grades of the events.
In the case of DLTs or grade 3 or higher non-hematologic toxicities as other toxicities, the administration is discontinued (non-prescribed withdrawal). If the condition recovers to grade 1 or less or to the baseline, the administration can be resumed. As grade 3 or higher non-hematologic toxicities, grade 3 nausea and/or vomiting that could be treated by intensive antiemetic therapy, grade 3 diarrhea in which an antidiarrheal was effective, and grade 3 skin toxicity that could be treated by intensive skin treatment with, for example, a topical steroid and/or an oral corticosteroid are excluded. When the administration is resumed, the administration amount is reduced by one level from the original administration amount. However, for adverse events (e.g., fatigue and skin dryness) that are judged to be less likely to become serious or worsen to life-threatening events, the administration of the drug can be continued at the same administration amount without dose reduction or administration discontinuation, regardless of the grades of the events.
The dose modification criteria for hematologic toxicities for which a causal relationship to the drug cannot be denied were set as follows.
If the neutrophil count is less than 500/mm^3, the administration is discontinued (non-prescribed withdrawal). If the neutrophil count recovers to 1500/mm^3 or more, the administration can be resumed. […] In the case of asymptomatic neutropenia lasting more than 7 days or neutropenia with a symptom (neutropenia with an infectious disease or fever), the administration amount is reduced by one level from the original administration amount.
If the platelet count is less than 25000/mm^3, the administration is discontinued (non-prescribed withdrawal). If the platelet count recovers to 75000/mm^3 or more, the administration can be resumed. When the administration is resumed, the administration amount is reduced by one level from the original administration amount. […]

[3] = test system: Human ovarian cancer cell line OVCAR-3; experiment: Administration schedule study in nude mouse model subcutaneously transplanted with OVCAR-3; type: in vivo; conditions: OVCAR-3 xenograft, FIG. 1
Procedure: Human ovarian cancer cell line OVCAR-3 (American Type Culture Collection (ATCC)) that had been subcutaneously subcultured in mice was cut to about 2 mm squares and subcutaneously transplanted into 5-week-old […] BALB/cAJcl-nu/nu mice (CLEA Japan, Inc.) using a transplantation needle.
The grouping day was defined as Day 1.
The tumor volume (TV) was calculated using the following formula.
TV=(major axis×minor axis×minor axis)×½
Requisite amounts of Compound 1 were weighed, and each was individually suspended in a 0.5% (w/v) hydroxypropyl methylcellulose (HPMC) aqueous solution to prepare administration liquids having appropriate concentrations. For the control group, a 0.5% (w/v) HPMC aqueous solution was used as an administration liquid.
The administration amount was 10 mL/kg body weight, and each administration liquid was individually injected into the stomach of the mice with a feeding needle.
Twice a week, the major axis and the minor axis of each tumor were measured from the skin with an electronic caliper, and the following items were further calculated. These were used as indexes to confirm the presence or absence of an antitumor effect.
Tumor volume (TVn)=(major axis×minor axis×minor axis)×½ […]
On the same days as the tumor volume measurement, the body weight (BW) of the mice was measured with an electronic balance, and the body weight change (BWC) was further calculated. […]

[4] = mice; cited from earlier work
[5] = Dose escalation (3+3 design) to determine recommend dose and administration schedule in humans; type: in vivo, human; conditions: oral once a day, patients with advanced solid cancers
Procedure: This test was performed to determine the recommend dose and administration schedule of Compound 1 and investigate the safety profile of Compound 1 for patients with advanced solid cancers for which standard treatment options are not available.
In this Example, first, the recommend doses for the schedule of administration for 7 consecutive days and the schedule of 4-administration with 3-withdrawal were determined. In the schedule of administration of Compound 1 for 7 consecutive days, Compound 1 was orally administered consecutively once a day for three courses for a total duration of 21 days, with one course taken as 7 days. In 4-administration with 3-withdrawal, Compound 1 was orally administered once a day on day 1 to day 4, day 8 to day 11, and day 15 to day 18 of three courses for a total duration of 21 days, with one course taken as 7 days.
In the schedule of administration for 7 consecutive days, the administration amount taken at one time started at 4 mg/body/day. […]
In the present invention, the 3+3 design was performed in the following manner. […] Whether the level proceeds is determined by the investigator and the sponsor based on comprehensive considerations of not only the information on DLTs, but also all related toxicities regardless of whether they are DLTs, and drugs used in combination/combination therapy from a clinical perspective. […]

[6] = Pharmacokinetics of Compound 1 in humans; type: in vivo, human; conditions: for Blood concentration remaining before administration: 24 mg/body/day, 4-administration with 3-withdrawal
Procedure: The pharmacokinetics of the recommend doses of Compound 1 in administration for 7 consecutive days and 4-administration with 3-withdrawal were measured in patients with advanced solid cancers for which standard treatment options were not available.
In the administration for 7 consecutive days, Compound 1 was orally administered once a day at a dose of 16 mg/body/day for three courses for a total duration of 21 days, with one course taken as 7 days. Blood samples were taken over time on day 1 and day 21, which was the last administration day of the three courses, to measure the pharmacokinetics.
In the 4-administration with 3-withdrawal, Compound 1 was orally administered once a day at a dose of 24 mg/body/day for three courses for a total duration of 21 days, with one course taken as 7 days. Blood samples were taken over time on day 1 and day 18, which was the last administration day of the three courses, to measure the pharmacokinetics. Blood samples were also taken immediately before administration on day 3, day 4, and day 8.

[7] = 4-administration with 3-withdrawal, 24 mg/body/day
[8] = administration for 7 consecutive days, 16 mg/body/day

Compound | Half-life [1] | Non-prescribed withdrawal period [2, 7] | Non-prescribed withdrawal [2, 7] | RECIST evaluation ([2]; 4-administration with 3-withdrawal, 24 mg/body/day, six patients) | RECIST evaluation [2, 8] | Non-prescribed withdrawal [2, 8] | Non-prescribed withdrawal period ([2]; administration for 7 consecutive days, 16 mg/body/day, average) | Tumor shrinkage effect (waterfall plots), 4-administration with 3-withdrawal versus 7 consecutive days ([2]; recommend doses, FIG. 4) | Body weight change ([3]; each Compound 1 administration group) | Antitumor effect (RTV, T/C) ([3]; oral 16 or 24 mg/kg/day 7 consecutive days or 24 mg/kg/day 4-administration with 3-withdrawal, Days 1-21) | Half-life [4] | Maximum tolerable administration amount (recommend dose) ([5]; 4-administration with 3-withdrawal) | Maximum tolerable administration amount (recommend dose) ([5]; administration for 7 consecutive days) | Accumulation (blood drug concentrations day 21 or day 18 versus day 1) ([6]; 16 mg/body/day 7 consecutive days and 24 mg/body/day 4-administration with 3-withdrawal) | Blood concentration remaining before administration ([6]; day 3) | Blood concentration remaining before administration ([6]; day 4) | Half-life ([6]; human, blood, humans, oral)
AZD5363 | about 6 hours | – | – | – | – | – | – | – | – | – | – | – | – | – | – | – | –
C[C@]1(O)C[C@@](N)(c2ccc(-c3nc4n(c3-c3ccccc3)COc3ccncc3-4)cc2)C1 [Compound 1, trans-3-amino-1-methyl-3-(4-(3-phenyl-5H-imidazo[1,2-c]pyrido[3,4-e][1,3]oxazin-2-yl)phenyl)cyclobutanol] | – | 2 days and 2.0 days | one of six patients and 1/6 | two of the six patients had stable disease (SD) | all of the patients had progressive disease (PD) | three of six patients and 3/6 | 3.7 days | superior | without serious weight loss | excellent antitumor effect | about 2.3 hours | 24 mg/body/day | 16 mg/body/day | has accumulation properties | 25.7 ng/mL | 35.7 ng/mL | ~49 h
